Assay results reported in PMC12827894, “Structure-guided design of picomolar-level macrocyclic TRPC5 channel inhibitors with antidepressant activity” (Acta Pharmaceutica Sinica. B, 2025).
Where a SMILES comes first, the peptide text is derived from it. Bridges are numbered along the chain shown (N, C = ends).

How the values were obtained:
5-HTT = biological target: T1, 5-HTT (Homo sapiens, UniProt P31645); assay: SafetyOne44 panel: 5-HTT; format: cell-based; conditions: read-out: Antagonist Reference Compound IC50
T1 construct: purchased ICE Bioscience ICESTP™ SafetyOne44 Panel

DAT = biological target: T2, DAT (Homo sapiens, UniProt Q01959); assay: SafetyOne44 panel: DAT; format: cell-based; conditions: read-out: Antagonist Reference Compound IC50
T2 construct: purchased ICE Bioscience ICESTP™ SafetyOne44 Panel

NET = biological target: T3, NET (Homo sapiens, UniProt P23975); assay: SafetyOne44 panel: NET; format: cell-based
T3 construct: ICE Bioscience ICESTP SafetyOne44 Panel

TRPC5 = biological target: T4, TRPC5 (Homo sapiens, UniProt Q9UL62); assay: cell-based; conditions: for IC50: HEK293T, 100 nmol/L Englerin A, read-out: IC50, inhibition of TRPC5, calcium flux assay; for TRPC5 inhibitory activity in words (SAR): relative to compound 6
T4 sequence (Q9UL62 1-973): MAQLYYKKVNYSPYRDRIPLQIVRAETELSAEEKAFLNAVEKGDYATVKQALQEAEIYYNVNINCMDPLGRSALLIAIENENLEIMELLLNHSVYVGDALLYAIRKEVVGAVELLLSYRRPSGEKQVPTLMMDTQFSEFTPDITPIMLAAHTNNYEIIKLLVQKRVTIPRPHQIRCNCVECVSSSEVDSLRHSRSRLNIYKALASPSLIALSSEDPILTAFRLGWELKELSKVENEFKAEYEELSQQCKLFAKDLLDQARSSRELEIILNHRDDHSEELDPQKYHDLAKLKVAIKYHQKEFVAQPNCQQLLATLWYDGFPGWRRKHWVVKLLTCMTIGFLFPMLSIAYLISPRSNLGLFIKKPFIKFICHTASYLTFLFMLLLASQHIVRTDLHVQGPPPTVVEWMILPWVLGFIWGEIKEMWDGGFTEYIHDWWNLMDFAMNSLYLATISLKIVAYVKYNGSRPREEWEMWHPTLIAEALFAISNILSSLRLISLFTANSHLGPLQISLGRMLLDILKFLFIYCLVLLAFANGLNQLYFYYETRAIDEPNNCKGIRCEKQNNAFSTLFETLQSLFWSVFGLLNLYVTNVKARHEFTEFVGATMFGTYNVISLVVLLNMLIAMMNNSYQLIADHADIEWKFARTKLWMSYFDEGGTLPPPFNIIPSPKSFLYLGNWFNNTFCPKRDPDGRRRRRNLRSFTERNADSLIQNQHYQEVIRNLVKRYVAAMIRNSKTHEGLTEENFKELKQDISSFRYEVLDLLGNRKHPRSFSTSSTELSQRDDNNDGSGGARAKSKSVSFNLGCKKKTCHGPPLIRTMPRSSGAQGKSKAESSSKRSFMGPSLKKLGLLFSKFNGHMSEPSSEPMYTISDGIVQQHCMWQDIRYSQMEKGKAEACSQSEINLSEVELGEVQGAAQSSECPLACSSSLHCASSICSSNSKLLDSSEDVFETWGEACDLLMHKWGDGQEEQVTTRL

ETA = biological target: T5, ETA (Homo sapiens, UniProt P25101); assay: SafetyOne44 panel: ETA; format: cell-based
T5 construct: purchased ICE Bioscience ICESTP™ SafetyOne44 Panel
T5 sequence (P25101 21-427): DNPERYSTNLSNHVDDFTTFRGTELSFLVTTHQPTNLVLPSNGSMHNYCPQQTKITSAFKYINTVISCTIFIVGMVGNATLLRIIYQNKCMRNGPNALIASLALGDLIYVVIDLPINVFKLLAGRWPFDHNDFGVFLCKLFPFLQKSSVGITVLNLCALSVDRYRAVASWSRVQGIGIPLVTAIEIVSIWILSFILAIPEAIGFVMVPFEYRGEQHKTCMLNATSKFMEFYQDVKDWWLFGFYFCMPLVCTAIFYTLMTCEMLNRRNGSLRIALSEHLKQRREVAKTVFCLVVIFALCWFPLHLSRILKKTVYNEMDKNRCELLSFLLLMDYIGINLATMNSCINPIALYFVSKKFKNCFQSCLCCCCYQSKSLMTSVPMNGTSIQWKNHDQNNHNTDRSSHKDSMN

NR1/NR2B = biological target: T6, NR1/NR2B (Homo sapiens, UniProt Q05586+Q13224); assay: SafetyOne44 panel ion channels: NR1/NR2B; format: cell-based
T6 construct: ICE Bioscience ICESTP SafetyOne44 Panel

5-HT1B = biological target: T7, 5-HT1B (Homo sapiens, UniProt P28222); assay: cell-based; conditions: agonist mode, read-out: Agonist Reference Compound EC50
T7 construct: purchased ICE Bioscience ICESTP SafetyOne44 Panel

5-HT2B = biological target: T8, 5-HT2B (Homo sapiens, UniProt P41595); assay: cell-based; format: cell-based; conditions: read-out: Antagonist Reference Compound IC50
T8 construct: purchased ICE Bioscience ICESTP SafetyOne44 Panel

LCK = biological target: T9, LCK (Homo sapiens, UniProt P06239); assay: biochemical; conditions: read-out: Antagonist Reference Compound IC50
T9 construct: purchased ICE Bioscience ICESTP™ SafetyOne44 Panel

CCK1 = biological target: T10, CCK1 (Homo sapiens, UniProt P32238); assay: SafetyOne44 panel: CCK1; format: cell-based; conditions: CCK1, antagonist mode; read-out: Antagonist Reference Compound IC50
T10 construct: purchased ICE Bioscience ICESTP™ SafetyOne44 Panel
T10 sequence (P32238 1-428): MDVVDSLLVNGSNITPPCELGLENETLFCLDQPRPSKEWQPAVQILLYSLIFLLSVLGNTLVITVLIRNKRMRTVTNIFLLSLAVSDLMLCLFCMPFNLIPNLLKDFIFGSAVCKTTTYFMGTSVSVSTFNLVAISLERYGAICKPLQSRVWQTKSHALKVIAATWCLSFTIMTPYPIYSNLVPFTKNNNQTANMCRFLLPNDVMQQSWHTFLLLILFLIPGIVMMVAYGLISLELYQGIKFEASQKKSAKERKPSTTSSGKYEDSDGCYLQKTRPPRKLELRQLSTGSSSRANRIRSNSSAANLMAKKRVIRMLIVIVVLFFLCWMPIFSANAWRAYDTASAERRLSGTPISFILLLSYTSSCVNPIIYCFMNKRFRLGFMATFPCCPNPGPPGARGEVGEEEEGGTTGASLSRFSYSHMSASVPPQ

H2 = biological target: T11, H2 (Homo sapiens, UniProt P25021); assay: SafetyOne44 panel: H2; format: cell-based; conditions: H2, antagonist mode; read-out: Antagonist Reference Compound IC50
T11 construct: purchased ICE Bioscience ICESTP™ SafetyOne44 Panel

nAChRα4β2 = biological target: T12, nAChRα4β2 (Homo sapiens, UniProt P17787+P43681); assay: SafetyOne44 panel ion channels: nAChRα4β2; format: cell-based; conditions: nAChRα4β2, antagonist mode; read-out: Antagonist Reference Compounds IC50
T12 construct: ICE Bioscience ICESTP SafetyOne44 Panel

IKs = biological target: T13, IKs (Homo sapiens, UniProt P51787); assay: SafetyOne44 panel ion channels: IKs; format: cell-based
T13 construct: ICE Bioscience ICESTP SafetyOne44 Panel
T13 sequence (P51787 whole entry): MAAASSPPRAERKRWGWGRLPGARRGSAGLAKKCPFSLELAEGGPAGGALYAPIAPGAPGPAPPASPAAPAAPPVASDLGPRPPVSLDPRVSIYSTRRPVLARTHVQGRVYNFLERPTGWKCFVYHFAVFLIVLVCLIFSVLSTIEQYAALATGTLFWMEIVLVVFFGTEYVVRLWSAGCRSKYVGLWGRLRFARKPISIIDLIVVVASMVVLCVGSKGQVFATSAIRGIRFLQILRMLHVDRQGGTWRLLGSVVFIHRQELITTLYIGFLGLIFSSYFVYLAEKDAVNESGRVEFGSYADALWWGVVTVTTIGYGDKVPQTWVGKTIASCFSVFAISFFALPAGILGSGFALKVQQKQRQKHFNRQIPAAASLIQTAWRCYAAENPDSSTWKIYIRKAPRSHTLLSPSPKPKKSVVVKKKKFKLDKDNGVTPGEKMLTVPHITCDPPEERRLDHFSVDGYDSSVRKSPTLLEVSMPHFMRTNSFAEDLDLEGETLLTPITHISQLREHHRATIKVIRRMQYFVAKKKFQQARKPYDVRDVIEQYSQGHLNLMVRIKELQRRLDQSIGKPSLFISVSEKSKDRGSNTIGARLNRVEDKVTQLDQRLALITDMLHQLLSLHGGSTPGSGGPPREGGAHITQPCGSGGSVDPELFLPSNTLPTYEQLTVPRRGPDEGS

T6 sequence (Q13224 27-1484, other chains not shown): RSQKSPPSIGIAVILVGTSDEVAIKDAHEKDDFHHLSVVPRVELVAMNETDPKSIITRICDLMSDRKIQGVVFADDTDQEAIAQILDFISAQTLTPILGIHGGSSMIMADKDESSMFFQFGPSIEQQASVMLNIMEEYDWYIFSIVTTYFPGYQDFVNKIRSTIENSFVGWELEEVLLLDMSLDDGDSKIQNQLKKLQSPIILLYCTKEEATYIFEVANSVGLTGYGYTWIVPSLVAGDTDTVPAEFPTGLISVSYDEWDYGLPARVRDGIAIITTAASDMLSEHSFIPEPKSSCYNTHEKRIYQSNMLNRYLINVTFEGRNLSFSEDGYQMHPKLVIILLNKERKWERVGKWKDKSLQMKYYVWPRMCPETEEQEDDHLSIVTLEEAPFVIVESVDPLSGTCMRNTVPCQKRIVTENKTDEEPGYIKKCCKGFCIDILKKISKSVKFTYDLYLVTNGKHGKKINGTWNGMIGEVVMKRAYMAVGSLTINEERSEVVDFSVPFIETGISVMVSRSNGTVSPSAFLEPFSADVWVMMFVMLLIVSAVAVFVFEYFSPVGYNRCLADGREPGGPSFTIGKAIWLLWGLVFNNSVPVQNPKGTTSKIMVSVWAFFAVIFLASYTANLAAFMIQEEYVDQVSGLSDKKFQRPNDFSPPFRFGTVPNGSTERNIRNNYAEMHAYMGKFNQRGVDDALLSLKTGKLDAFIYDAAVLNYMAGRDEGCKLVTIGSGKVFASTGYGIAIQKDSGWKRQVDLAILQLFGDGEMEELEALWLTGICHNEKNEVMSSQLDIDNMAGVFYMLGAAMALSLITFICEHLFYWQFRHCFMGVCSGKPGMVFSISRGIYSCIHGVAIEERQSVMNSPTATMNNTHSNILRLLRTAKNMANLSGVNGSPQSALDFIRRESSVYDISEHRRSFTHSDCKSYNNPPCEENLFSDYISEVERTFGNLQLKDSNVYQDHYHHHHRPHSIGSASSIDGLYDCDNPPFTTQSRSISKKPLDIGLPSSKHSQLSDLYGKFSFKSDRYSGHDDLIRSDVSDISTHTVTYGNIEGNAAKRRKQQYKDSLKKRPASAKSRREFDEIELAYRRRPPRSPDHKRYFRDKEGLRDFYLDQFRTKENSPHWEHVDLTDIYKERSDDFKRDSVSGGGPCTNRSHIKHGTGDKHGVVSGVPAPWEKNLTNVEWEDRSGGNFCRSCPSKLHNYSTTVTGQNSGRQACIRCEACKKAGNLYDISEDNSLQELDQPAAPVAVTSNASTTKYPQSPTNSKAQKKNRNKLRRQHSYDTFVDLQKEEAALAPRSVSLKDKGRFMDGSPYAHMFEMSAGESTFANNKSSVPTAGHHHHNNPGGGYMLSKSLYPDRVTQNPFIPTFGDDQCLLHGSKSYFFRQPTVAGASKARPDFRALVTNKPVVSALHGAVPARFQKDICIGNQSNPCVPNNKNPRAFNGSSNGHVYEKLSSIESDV
T3 sequence (P23975 whole entry): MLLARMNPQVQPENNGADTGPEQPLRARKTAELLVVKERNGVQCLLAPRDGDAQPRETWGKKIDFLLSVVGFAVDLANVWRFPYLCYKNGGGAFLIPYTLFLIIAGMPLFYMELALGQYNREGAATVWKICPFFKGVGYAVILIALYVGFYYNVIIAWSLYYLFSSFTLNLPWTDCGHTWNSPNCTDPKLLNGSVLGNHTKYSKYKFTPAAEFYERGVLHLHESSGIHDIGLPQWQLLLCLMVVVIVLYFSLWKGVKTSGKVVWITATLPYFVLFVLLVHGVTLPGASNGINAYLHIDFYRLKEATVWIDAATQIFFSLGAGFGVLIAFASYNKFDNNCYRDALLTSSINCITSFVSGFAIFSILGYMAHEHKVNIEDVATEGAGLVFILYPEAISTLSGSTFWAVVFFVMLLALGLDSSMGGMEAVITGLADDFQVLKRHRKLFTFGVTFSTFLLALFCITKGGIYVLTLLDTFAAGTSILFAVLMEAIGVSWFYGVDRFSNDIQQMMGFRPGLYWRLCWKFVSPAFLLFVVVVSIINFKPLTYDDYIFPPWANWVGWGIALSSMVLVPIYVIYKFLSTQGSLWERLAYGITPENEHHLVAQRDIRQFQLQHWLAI
T9 sequence (P06239 whole entry): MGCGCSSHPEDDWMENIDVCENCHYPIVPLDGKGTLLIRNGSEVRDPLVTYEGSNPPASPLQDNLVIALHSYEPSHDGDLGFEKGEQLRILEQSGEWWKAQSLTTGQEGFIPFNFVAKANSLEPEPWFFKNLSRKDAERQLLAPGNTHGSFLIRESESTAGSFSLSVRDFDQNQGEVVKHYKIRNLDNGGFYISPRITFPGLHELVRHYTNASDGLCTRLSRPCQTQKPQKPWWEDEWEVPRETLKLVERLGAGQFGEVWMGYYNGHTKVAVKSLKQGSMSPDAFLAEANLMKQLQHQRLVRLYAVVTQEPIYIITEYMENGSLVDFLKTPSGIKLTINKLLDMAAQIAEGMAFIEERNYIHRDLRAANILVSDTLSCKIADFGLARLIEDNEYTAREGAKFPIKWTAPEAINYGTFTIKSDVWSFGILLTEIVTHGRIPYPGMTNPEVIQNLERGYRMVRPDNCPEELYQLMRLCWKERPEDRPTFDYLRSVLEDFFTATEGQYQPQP
T12 sequence (P43681 29-627 limits assumed): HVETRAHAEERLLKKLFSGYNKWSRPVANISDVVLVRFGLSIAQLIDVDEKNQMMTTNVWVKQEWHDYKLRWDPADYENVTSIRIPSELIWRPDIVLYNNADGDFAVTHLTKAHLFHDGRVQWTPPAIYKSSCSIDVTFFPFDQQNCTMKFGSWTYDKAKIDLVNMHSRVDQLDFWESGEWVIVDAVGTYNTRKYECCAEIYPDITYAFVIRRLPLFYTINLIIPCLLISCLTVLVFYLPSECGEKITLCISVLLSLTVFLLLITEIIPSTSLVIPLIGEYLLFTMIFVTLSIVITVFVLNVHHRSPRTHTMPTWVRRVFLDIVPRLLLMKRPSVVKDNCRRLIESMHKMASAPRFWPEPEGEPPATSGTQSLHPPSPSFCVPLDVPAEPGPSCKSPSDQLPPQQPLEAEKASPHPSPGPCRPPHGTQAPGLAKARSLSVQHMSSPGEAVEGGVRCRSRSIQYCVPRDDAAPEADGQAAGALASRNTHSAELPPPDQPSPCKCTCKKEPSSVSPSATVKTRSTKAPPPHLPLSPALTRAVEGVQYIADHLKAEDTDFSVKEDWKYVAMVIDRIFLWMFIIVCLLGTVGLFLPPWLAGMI
T12 sequence (P17787 26-502): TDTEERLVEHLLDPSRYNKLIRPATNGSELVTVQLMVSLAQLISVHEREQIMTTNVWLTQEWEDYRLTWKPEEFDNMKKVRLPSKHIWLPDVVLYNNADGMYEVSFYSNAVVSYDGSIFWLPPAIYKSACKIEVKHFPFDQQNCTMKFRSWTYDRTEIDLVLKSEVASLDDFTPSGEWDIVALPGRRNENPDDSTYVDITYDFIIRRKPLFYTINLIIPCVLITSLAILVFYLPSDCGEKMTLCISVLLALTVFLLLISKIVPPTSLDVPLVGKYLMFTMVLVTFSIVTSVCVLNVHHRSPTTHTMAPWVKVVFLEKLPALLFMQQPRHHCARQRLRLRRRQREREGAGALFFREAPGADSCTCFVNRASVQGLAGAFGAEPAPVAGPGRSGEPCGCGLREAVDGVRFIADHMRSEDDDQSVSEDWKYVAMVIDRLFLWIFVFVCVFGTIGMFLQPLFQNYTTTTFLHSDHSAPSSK
T11 sequence (P25021 whole entry): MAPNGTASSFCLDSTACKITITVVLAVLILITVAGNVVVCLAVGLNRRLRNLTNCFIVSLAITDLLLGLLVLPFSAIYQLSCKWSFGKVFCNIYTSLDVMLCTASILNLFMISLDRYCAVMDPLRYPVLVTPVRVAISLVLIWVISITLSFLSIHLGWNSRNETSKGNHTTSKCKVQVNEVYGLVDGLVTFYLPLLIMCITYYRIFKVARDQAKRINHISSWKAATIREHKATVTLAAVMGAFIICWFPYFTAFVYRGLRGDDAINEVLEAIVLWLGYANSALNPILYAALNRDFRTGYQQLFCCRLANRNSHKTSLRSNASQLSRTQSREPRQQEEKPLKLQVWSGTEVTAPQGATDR

c1ccc2cc([C@]34CNC[C@H]3C4)ccc2c1 [Centanafadine, reference compound]
IC50 (5-HTT): 126 nM | IC50 (DAT): 144 nM | IC50 (NET): 139 nM

CC(C)(O)CCn1c(=O)c2c3nc(n2Cc2ccc(Cl)cc2)Oc2cccc(c2)OCCCCCCn3c1=O [compound 20]
IC50 (TRPC5): 10000 nM

CC(O)CCn1c(=O)c2c3nc(n2Cc2ccc(Cl)cc2)Oc2cccc(c2)OCCCCCCn3c1=O (stereo not drawn) [compound 21]
IC50 (TRPC5): 10 nM | TRPC5 inhibitory activity in words (SAR) (TRPC5; calcium flux): tolerated

O=c1c2c3nc(n2Cc2ccc(Cl)cc2)Oc2cccc(c2)OCCNCCCn3c(=O)n1CCCO [compound 19]
IC50 (TRPC5): 840 nM | TRPC5 inhibitory activity in words (SAR) (TRPC5; calcium flux): reduced activity

O=c1c2c3nc(n2Cc2ccc(Cl)cc2)Oc2cccc(c2)OCCCCCCCn3c(=O)n1CCCO [compound 7]
IC50 (TRPC5): 19.2 nM

CCCn1c2nc3c1c(=O)n(CCCO)c(=O)n3CCCCCCOc1cccc(c1)O2 [compound 12]
IC50 (TRPC5): 3500 nM | fold decrease in activity (vs compound 6) (TRPC5; calcium flux, SAR): over 1000 fold

CC[C@H](C)[C@H](NC(=O)[C@H](CC(=O)O)NC(=O)[C@H](CC(C)C)NC(=O)[C@H](Cc1cnc[nH]1)NC(=O)[C@@H]1CSSC[C@H](N)C(=O)N[C@@H](CO)C(=O)N[C@H]2CSSC[C@H](NC(=O)[C@H](CCC(=O)O)NC(=O)[C@H](CCCCN)NC(=O)[C@H](CC(=O)O)NC(=O)[C@H](CC(C)C)NC(=O)[C@H](Cc3c[nH]c4ccccc34)NC(=O)[C@H](CO)NC(=O)[C@H](CO)NC2=O)C(=O)N[C@@H](C(C)C)C(=O)N[C@@H](Cc2ccc(O)cc2)C(=O)N[C@@H](Cc2ccccc2)C(=O)N1)C(=O)N[C@H](C(=O)N[C@@H](Cc1c[nH]c2ccccc12)C(=O)O)[C@@H](C)CC [Endothelin 2, reference compound] (H-CSCSSWLDKECVYFCHLDIIW-OH; disulfide 1-15, 3-11)
EC50 (ETA): 1.89 nM

CC(CO)Cn1c(=O)c2c3nc(n2Cc2ccc(Cl)cc2)Oc2cccc(c2)OCCCCCCn3c1=O (stereo not drawn) [compound 22]
IC50 (TRPC5): 220 nM

NCC(=O)O [Glycine, reference compound]
EC50 (NR1/NR2B; read-out: Agonist Reference Compounds EC50): 132 nM

COc1ccc2[nH]cc(C3=CCNCC3)c2c1 [RU 24969, reference compound]
EC50 (5-HT1B): 4.25 nM

O=C1NCCCCCn2c(=O)n(CCCO)c(=O)c3c2nc(n3Cc2ccc(Cl)cc2)Oc2cccc1c2 [compound 17]
IC50 (TRPC5): > 10000 nM | TRPC5 inhibitory activity in words (SAR) (TRPC5; calcium flux): completely abolishing the activity

CC(C)c1cc(-c2ccc(F)c3ccccc23)nc(N)n1 [RS-127445, reference compound]
IC50 (5-HT2B): 0.972 nM

O=c1c2c3nc(n2Cc2ccc(Cl)cc2)Oc2cccc(c2)OCCCCCCn3c(=O)n1CC(O)CO (stereo not drawn) [compound 23]
IC50 (TRPC5): 790 nM

NC(CCCP(=O)(O)O)C(=O)O [D-AP5, reference compound]
Antagonist Reference Compounds % Inh (NR1/NR2B; NR1/NR2B, antagonist mode): 87.44%

O=c1c2c3nc(n2Cc2ccc(Cl)cc2)Oc2cccc(c2)OCCCCCn3c(=O)n1CCCO [compound 5]
IC50 (TRPC5): 28.4 nM

O=c1c2c3nc(n2Cc2ncco2)Oc2cccc(c2)OCCCCCCn3c(=O)n1CCCO [compound 15]
IC50 (TRPC5): > 10000 nM | fold decrease in activity (vs compound 6) (TRPC5; calcium flux, SAR): over 1000 fold

O=c1c2c3nc(n2Cc2ccc(Cl)cc2)Oc2cc(ccc2Cl)OCCCCCCn3c(=O)n1CCCO [compound 8]
IC50 (TRPC5): 89.1 nM | fold decrease in activity (vs compound 6) (TRPC5; calcium flux, SAR): about 90 fold

O=c1c2c3nc(n2Cc2ccc(Cl)cc2)Oc2cccc(c2)OCCCCCCn3c(=O)n1CCCO [compound 6]
IC50 (TRPC5): 1.1 nM

Cc1cc(-c2cc(O)ccc2Cl)cc2nnc(Nc3ccc(OCCN4CCCC4)cc3)nc12 [TG 100572, reference compound]
IC50 (LCK): 0.76 nM

O=c1c2c3nc(n2Cc2ccc(Cl)cc2)Oc2cccc(c2)OCCCCCCn3c(=O)n1CC(F)(F)CO [compound 24]
IC50 (TRPC5): 440 nM

O=c1c2c3nc(n2Cc2nccs2)Oc2cccc(c2)OCCCCCCn3c(=O)n1CCCO [compound 14]
IC50 (TRPC5): 1500 nM | fold decrease in activity (vs compound 6) (TRPC5; calcium flux, SAR): over 1000 fold

O=c1c2c3nc(n2Cc2ccc(Cl)cc2)Oc2cncc(c2)OCCCCCCn3c(=O)n1CCCO [compound 11]
IC50 (TRPC5): 0.08 nM | fold increase in activity (vs compound 6) (TRPC5; calcium flux, SAR): about 10 fold

O=c1c2c3nc(n2Cc2ccc(Cl)cc2)Oc2cccc(c2)COCCOCCn3c(=O)n1CCCO [compound 18]
IC50 (TRPC5): 170 nM | fold decrease in activity (vs compound 6) (TRPC5; calcium flux, SAR): 100 fold

O=c1c2c3nc(n2Cc2cccc(Cl)c2)Oc2cccc(c2)OCCCCCCn3c(=O)n1CCCO [compound 16]
IC50 (TRPC5): 1.8 nM | TRPC5 inhibitory activity in words (SAR) (TRPC5; calcium flux): tolerated

CCCCCN(CCCOC)C(=O)C(CCC(=O)O)NC(=O)c1ccc(Cl)c(Cl)c1 (stereo not drawn) [Loxiglumide, reference compound]
IC50 (CCK1): 353 nM

CNC(=C[N+](=O)[O-])NCCSCc1csc(CN(C)C)n1 [Nizatidine, reference compound]
IC50 (H2): 112 nM

CCCNS(=O)(=O)Nc1ncnc(OCCOc2ncc(Br)cn2)c1-c1ccc(Br)cc1 [Macitentan, reference compound]
IC50 (ETA; ETA, antagonist mode, read-out: Antagonist Reference Compound IC50): 3.29 nM

O=c1c2c3nc(n2CCC(F)(F)F)Oc2cccc(c2)OCCCCCCn3c(=O)n1CCCO [compound 13]
IC50 (TRPC5): 1200 nM | fold decrease in activity (vs compound 6) (TRPC5; calcium flux, SAR): over 1000 fold

CCN(CC)CCOC(=O)C(c1ccccc1)c1ccccc1 [Adiphenine, reference compound]
IC50 (nAChRα4β2): 547 nM

CCS(=O)(=O)N(C)[C@H]1c2cc(C#N)ccc2OC(C)(C)[C@@H]1O [293B, reference compound]
Antagonist Reference Compounds % Inh (IKs): 90.96%

O=c1c2c3nc(n2Cc2ccc(Cl)cc2)Oc2ccc(Cl)c(c2)OCCCCCCn3c(=O)n1CCCO [compound 9]
IC50 (TRPC5): 97.5 nM | fold decrease in activity (vs compound 6) (TRPC5; calcium flux, SAR): about 90 fold
